Experimental data published in patent publication US7842702B2, “Treatment for irritable bowel syndrome” (Astellas Pharma Inc., priority 2007, dated 2010).
≈ marks a conversion by molar mass, not a printed value.

How the values were obtained:
[1] = tested on: spontaneous defecation in mice; conditions: mouse, in vivo
Procedure: Doxantrazole was used by dissolving it in 5% (w/v) NaHCO3 aqueous solution, and compound 1 was used by dissolving it in 0.5% methylcellulose aqueous solutions Male ddY mice under no fasting were reared in individual cages from the evening of the previous day of the experiment. On the day of the experiment, each compound was administered intraperitoneally (doxantrazole) or orally (compound 1), and the number of stools spontaneously excreted for 2 hours after the initiation of the experiment was measured.

[2] = tested on: abdominal contractions caused by colorectal distention in the acetic acid-induced IBS model; assay: Viscerosensory response to colorectal distention (number of abdominal contractions) in the acetic acid-induced IBS model; assay type: in vivo, rat; conditions: for inhibitory effects on abdominal contractions, concomitant use with alosetron: alosetron 0.1 mg/kg, po + compound 1 0.01 mg/kg, po or cromolyn 20 mg/kg, ip, FIG. 8
Procedure: (§1) Preparation of an IBS model was carried out by the following method with reference to the method of Jun-Ho La et al. (World J. Gastroenterol., 2003, vol. 9 (12), pp. 2791-2795). Male Sprague-Dawley (SD) rats or Wistar rats after an overnight fast were used. Colitis was induced by intracolonic instillation of 1 ml 4% acetic acid at 8 cm proximal to the anus for 30 seconds under light ether anesthesia. Then, 1 ml physiological saline was instilled to dilute the acetic acid and flush the colon twice. Rats were recovered from colitis for 6 days, and used for experiments shown in Examples 2 and 3 at 7 days after induction of colitis as “IBS rat (4% acetic acid)”. In addition, rats received physiological saline instead of acetic acid was used as a “control group (saline)”.
Male Wistar rats under no fasting at 7 days after 4% acetic acid treatment or physiological saline treatment were used. Under light ether anesthesia, a latex balloon of 6 cm in length was inserted intra-anally until the end of the balloon was 2 cm inside the rectum. The catheter connecting from the balloon was fixed to the tail base with a tape and connected to a pressure transducer via a three-way cock. After restoration from the ether anesthesia in a cage (23.5×19×19 cm), nociceptive behavior (the number of abdominal contractions) to colorectal distention (15, 30, 45, 60 mmHg) applied stepwise at 5 minute intervals was measured. […] In this connection, each compound was administered 30 minutes before the colorectal distention.

rat abdominal mast cells = assay: Release of histamine by an antigen-antibody reaction using rat abdominal mast cells (degranulation); assay type: cell-based; conditions: Mast cell, fluorescent method with o-phthalaldehyde, read-out: Degranulation (mast cells) (IC50 μg/ml)
Procedure: In addition, the inhibitory effects of compound 1 and cromolyn on the release of histamine by an antigen-antibody reaction using rat abdominal mast cells were measured by a fluorescent method which is a modified method of Shore et al. (The Journal of Pharmacology and Experimental Therapeutics, 1959, vol. 127, pp. 182-186) with o-phthalaldehyde.

[3] = tested on: restraint stress-induced defecation in the acetic acid-induced IBS model; assay: Restraint stress-induced defecation in the acetic acid-induced IBS model; assay type: in vivo, rat; conditions: for ED50: Rattus norvegicus, male SD rats, 4% acetic acid IBS model, 30 min before restraint, stools for 1 hour; for ED50 / inhibitory effects on restraint stress-induced defecation (dose dependence): compound 1 po, cromolyn ip; for inhibitory effects on restraint stress-induced defecation (dose dependence): FIGS. 2 and 3
Procedure: as §1
Cromolyn was used by dissolving it in physiological saline, and compound 1 and ketotifen were used by dissolving them in 0.5% methylcellulose aqueous solution, respectively. Each compound was intraperitoneally administered (cromolyn) or orally administered (compound 1 and ketotifen) to male SD rats under no fasting at 7 days after the 4% acetic acid treatment or physiological saline treatment. The animals were put into restraint stress cages (product name: KN-468 (B), mfd. by Natsume Seisakusho) 30 minutes thereafter and the number and weight of the stools excreted for 1 hour were measured (“stress”). On the other hand, the normal group was put into individual cage and the number and weight of the stools excreted for 1 hour were measured in the same manner (“normal”). Results of the restraint stress-induced defecation in the agent-nonadministered group are shown in FIG. 1, and the results of agent-administered groups in FIGS. 2 to 4 respectively.

IBS patients = conditions: cited from earlier work

Row | effect on the spontaneous defecation in mice [1] | IC50 (rat abdominal mast cells) [µg/mL] | SMILES | inhibitory effects on abdominal contractions, concomitant use with alosetron [2] | ED50 [3] [mg/kg] | inhibitory effects on restraint stress-induced defecation (dose dependence) [3] | further results
1 | inhibitory tendency |  | O=C1c2ccccc2S(=O)(=O)c2cc(-c3nnn[nH]3)ccc21 [doxantrazole] |  |  |  | 
2 |  | 2.2 | O=C(O)c1cc(=O)c2c(OCC(O)COc3cccc4oc(C(=O)O)cc(=O)c34)cccc2o1 [Cromolyn, sodium cromoglycate] | reinforcement of the effect was not found | 19.9 | in a dose-dependent manner | inhibition of restraint stress-induced defecation at 100 mg/kg, ip ([3]; 100 mg/kg, ip): inhibited it almost completely
3 | no effect | 0.0074 (≈ 0.0212 µM) | O=C(Nc1nnn[nH]1)c1cc(Oc2ccccc2)c2ccccn2c1=O [Compound 1, N-(1H-tetrazol-5-yl)-1-phenoxy-4H-quinolizin-4-one-3-carboxamide] | additively | 0.0071 | in a dose-dependent manner | inhibitory effects on abdominal contractions, concomitant use with ramosetron ([2]; compound 1 0.01 mg/kg, po + ramosetron 0.01 mg/kg, po, FIG. 7): additively; inhibitory effects on the abdominal contractions caused by the colorectal distention ([2]; male Wistar rats, 0.01 and 1 mg/kg, po, 30 min before distention, FIG. 6): dose-dependent inhibitory effects; inhibition of restraint stress-induced defecation at 1 mg/kg, po ([3]; 1 mg/kg, po): inhibited it almost completely

Continued, molecule first:

Row | SMILES | effect on the spontaneous defecation in mice [1] | IC50 (rat abdominal mast cells) [µg/mL] | inhibitory effects on abdominal contractions, concomitant use with alosetron [2] | ED50 [3] [mg/kg] | inhibitory effects on restraint stress-induced defecation (dose dependence) [3] | further results
4 | CN1CCC(=C2c3ccccc3CC(=O)c3sccc32)CC1 [ketotifen] |  |  |  |  |  | inhibitory effects on restraint stress-induced defecation at the maximum ([3]; po, maximum effect, FIG. 4): about 30%
5 | Cn1cc(C(=O)[C@@H]2CCc3nc[nH]c3C2)c2ccccc21 [ramosetron] |  |  |  |  |  | inhibitory effects on abdominal contractions, ramosetron alone ([2]; 0.01 mg/kg, po): maximal inhibitory effects
6 | Cc1[nH]cnc1CN1CCc2c(c3ccccc3n2C)C1=O [alosetron] |  |  |  |  |  | inhibitory effects on abdominal contractions, alosetron alone ([2]; 0.1 mg/kg, po): maximal inhibitory effects; improvement rate for abdominal symptoms and diarrhea (IBS patients): about 50%
